From patent publication EP1986011A2, “Peptide epitopes recognized by disease promoting CD4+ T lymphocytes” (MGI PHARMA Biologics, Inc., priority 1999, dated 2008)

Assays:
[1] = system: isolated HLA-DR4 molecules; experiment: Binding inhibition assay: inhibition of binding of biotinylated invariant chain indicator peptide; design: species or system human; details: HLA-DR4 10 µg/ml, indicator peptide 1 µM, varying concentrations of test peptide, overnight at room temperature (Fig. 3)
Procedure: Synthetic peptides with amino acid sequences based on the 6 core regions identified by the IMF were tested for their ability to bind to isolated HLA-DR4 molecules in a binding inhibition assay performed essentially as previously described [Chicz et al. (1997), J. Immunol. 159: 4935-4942]. In brief, aliquots of immunopurified preparation of HLA-DR4 (final concentration of 10 µg/ml) were incubated with a biotinylated HLA-DR4 binding peptide (consisting of residues 98-117 of class II MHC invariant chain) ("the indicator peptide") (1 µM) and varying concentrations of the test peptides in 0.2 ml tubes. After an overnight incubation at room temperature, the contents of each tube were transferred to a well of a 96-well plastic microtiter plate precoated with anti-HLA-DR4 antibody. The microtiter plates were rocked for 60 min at room temperature and unbound material was removed by rigorous washing. The relative amount of bound standard peptide in each well was determined by measuring color development after addition of streptavidin-conjugated alkaline phosphatase, washing, and adding a chromogenic alkaline phosphatase substrate.
In order to test for the ability of the 6 consensus peptides representing the 6 core regions defined by the IMF described in Example 1, a binding inhibition assay was performed (Fig. 3). […]

peripheral blood T cells = experiment: T cell proliferation assay (Epitope Verification) with synthetic IA-2 peptides; assay type: cell-based, human; design: key: significant ("POS" in Table 2) proliferative responses; details: HLA-DR4 IDDM patient DC (I), DRB1 genotype 0403.0405; peptide 10 µg/ml, 5 days; significant = SI >2.0 and >40% wells positive
Procedure: To establish that peptide epitopes identified are relevant to IDDM (i.e., that they are recognized by CD4+ T cells of patients with IDDM or pre-IDDM expressing the DR4 molecule but not by non-diabetic controls also expressing the DR4 molecule), T cell proliferation assays were carried out using synthetic peptides having amino acid sequences based upon the peptides identified by mass spectrometry to be derived from IA-2ic. Peptides were synthesized using Fmoc chemistry with an Applied Biosystems SYNERGY peptide synthesizer and purified by preparative RP-HPLC on a Waters 2690 Alliance system equipped with a Radial Compression Module. […] Peripheral blood mononuclear cells from recent onset IDDM patients (<6 months from diagnosis) and healthy controls expressing the appropriate HLA DR4 molecules were separated by density gradient centrifugation and co-cultured in wells of 96-well U-bottom plates with peptides at a concentration of 10 µg/ml for 5 days in 150 µl RPMI 1640/10% pooled normal AB serum, followed by pulsing with 0.5 µCi [^3H]-thymidine/well and harvesting onto filters for radioactivity counting measured in counts per minute (cpm). […] Results were expressed as a stimulation index (SI) which is the ratio of the cpm obtained from cultures containing peptide to the cpm obtained from cultures without peptide (mean cpm of 12 wells in each case). […]

Row | Substance | binding to HLA-DR4 molecules [1] | T cell response to IA-2 peptide (peripheral blood T cells)
1 | Ii-c: a peptide consisting of residues 98-117 of class II MHC invariant chain (PKPPKPVSKMRMATPLLMQA) [reference compound] | bind with intermediate avidity | –
2 | LAKEWQALCAYQAEPNTCATAQGE [709-732, peptide consisting of residues 709-732 of IA-2] | bind strongly | POS
